This note sets out measurements from ChEMBL document CHEMBL4673394, “Discovery of a Series of Pyrazinone RORγ Antagonists and Identification of the Clinical Candidate BI 730357” (ACS Med Chem Lett, 2021).

Data set [1] in a line: Oral bioavailability in Wistar Han rat at 3 mg/kg measured at 15 to 1440 mins. It is filed as ADME, organism-based. The note with it: in vivo, time 15-1440 min.
The nature of data set [2]: Clearance in Wistar Han rat at 1 mg/kg, iv measured at 5 to 1440 mins relative to hepatic blood flow. It is filed as ADME, organism-based. The note with it: in vivo, time 5-1440 min.
Data set [3] is described as follows: Permeability in human Caco2 cells. Format: ADME, cell-based. As to conditions: Caco-2, read-out: permeability.

Molecules are shown by their SMILES.

The term bioavailability denotes the share of a dose that reaches the circulation, judged against a reference dose that is usually intravenous. On to `CC[C@@H](C)n1c(=O)c(NCc2ccc(S(=O)(=O)CC)cn2)nc2cnc(-c3c(OC)ncnc3C3CC3)nc21`, for which the bioavailability in data set [1] stood at 20%. The same molecule displayed a CL in data set [2] of 42%.

In data set [2], `CCS(=O)(=O)c1ccc(CNc2nc3cnc(-c4c(OC)ncnc4C4CC4)nc3n([C@@H](C)C3CC3)c2=O)nc1` came in with a CL of 56%. Turning to `CCS(=O)(=O)c1ccc(CNc2nc3cnc(-c4c(OC)ncnc4C4CC4)nc3n(C(C)C)c2=O)nc1`, in data set [1], the bioavailability stood at 70%. The CL in data set [2] is reported as 32%. On to `CCS(=O)(=O)c1ccc(CNc2nc3cnc(-c4c(OC)ncnc4C4CC4)nc3n([C@@H](C)C(F)(F)F)c2=O)nc1`, for which the CL in data set [2] was found to be 10%. In the case of `CCS(=O)(=O)c1ccc(CNc2nc3cnc(-c4c(OC)ncnc4C4CC4)nc3n([C@H](C)C3CC3)c2=O)nc1`, the CL in data set [2] came out at 44%. Take `Cc1ncnc(C2CC2)c1-c1ncc2nc(NCc3ccc(S(C)(=O)=O)cn3)c(=O)n([C@@H](C)C3CC3)c2n1`: in data set [3], the Papp came to 1100 nm/s. Besides, in data set [1], the bioavailability is 70%. In data set [2], the CL is listed as 16%. As for `CCS(=O)(=O)c1ccc(CNc2nc3cnc(-c4c(C)ncnc4C4CC4)nc3n([C@@H](C)C3CC3)c2=O)cn1`, the bioavailability in data set [1] stood at 61%. In data set [2], the CL is listed as 19%. Take `CCS(=O)(=O)c1cnc(CNc2nc3cnc(-c4c(C)ncnc4C4CC4)nc3n([C@@H](C)C3CC3)c2=O)nc1`: in data set [2], the CL is on record as 29%.

In data set [2], `CNS(=O)(=O)c1ccc(CNc2nc3cnc(-c4c(C)ncnc4C4CC4)nc3n([C@@H](C)C3CC3)c2=O)nc1` gave a CL of 57%. On the same count and under the same terms, for `CCS(=O)(=O)c1ccc(CNc2nc3cnc(-c4c(C)ncnc4C4CC4)nc3n([C@@H](C)C3CC3)c2=O)nc1` the value was 23%. In data set [1], `CCS(=O)(=O)c1ccc(CNc2nc3cnc(-c4c(C)ncnc4C4CC4)nc3n(C(C)C)c2=O)nc1` had a bioavailability of 71%. Moreover, the CL in data set [2] came out at 16%. On the same counts, the results for `CCS(=O)(=O)c1ccc(CNC(=O)N2CC(C)(C)c3nc(-c4c(OC)ncnc4C4CC4)ccc32)cc1` are 90% and 34%.
